Data: the NIST ThermoML archive (doi:10.1021/je600583u)

Assay: xn = mol fraction of the nth substance listed
Details: Fluid (supercritical or subcritical phases), isochoric method

CC(F)F [1,1-difluoroethane] + O=C=O
Details | molar volume [m3/mol]
293.08 K, 3005 kPa, x2 = 0.873 | 0.000595
293.09 K, 577 kPa, x2 = 0.25 | 0.003751
293.09 K, 699 kPa, x2 = 0.389 | 0.00308
293.09 K, 930 kPa, x2 = 0.503 | 0.002291
293.09 K, 1290 kPa, x2 = 0.685 | 0.001629
293.09 K, 1572 kPa, x2 = 0.731 | 0.001321
293.1 K, 1257 kPa, x2 = 0.631 | 0.001641
298.07 K, 590 kPa, x2 = 0.25 | 0.003752
298.07 K, 715 kPa, x2 = 0.389 | 0.003081
298.07 K, 952 kPa, x2 = 0.503 | 0.002292
298.07 K, 1610 kPa, x2 = 0.731 | 0.001321
298.07 K, 3114 kPa, x2 = 0.873 | 0.000595
298.08 K, 1320 kPa, x2 = 0.685 | 0.00163
298.09 K, 1287 kPa, x2 = 0.631 | 0.001641
303.04 K, 3203 kPa, x2 = 0.873 | 0.000595
303.05 K, 602 kPa, x2 = 0.25 | 0.003753
303.05 K, 973 kPa, x2 = 0.503 | 0.002292
303.06 K, 589 kPa, x2 = 0.117 | 0.003796
303.06 K, 731 kPa, x2 = 0.389 | 0.003081
303.06 K, 1350 kPa, x2 = 0.685 | 0.00163
303.06 K, 1648 kPa, x2 = 0.731 | 0.001321
303.07 K, 1317 kPa, x2 = 0.631 | 0.001642
308.03 K, 602 kPa, x2 = 0.117 | 0.003797
308.03 K, 3292 kPa, x2 = 0.873 | 0.000595
308.04 K, 615 kPa, x2 = 0.25 | 0.003753
308.04 K, 746 kPa, x2 = 0.389 | 0.003082
308.04 K, 994 kPa, x2 = 0.503 | 0.002293
308.04 K, 1380 kPa, x2 = 0.685 | 0.00163
308.05 K, 1346 kPa, x2 = 0.631 | 0.001642
308.05 K, 1685 kPa, x2 = 0.731 | 0.001322
313.02 K, 615 kPa, x2 = 0.117 | 0.003798
313.02 K, 3380 kPa, x2 = 0.873 | 0.000595
313.03 K, 627 kPa, x2 = 0.25 | 0.003754
313.03 K, 761 kPa, x2 = 0.389 | 0.003083
313.03 K, 1015 kPa, x2 = 0.503 | 0.002293
313.03 K, 1409 kPa, x2 = 0.685 | 0.001631
313.03 K, 1722 kPa, x2 = 0.731 | 0.001322
313.04 K, 1375 kPa, x2 = 0.631 | 0.001642
318 K, 3467 kPa, x2 = 0.873 | 0.000596
318.01 K, 627 kPa, x2 = 0.117 | 0.003799
318.01 K, 776 kPa, x2 = 0.389 | 0.003084
318.01 K, 1035 kPa, x2 = 0.503 | 0.002294
318.01 K, 1438 kPa, x2 = 0.685 | 0.001631
318.02 K, 640 kPa, x2 = 0.25 | 0.003755
318.02 K, 1758 kPa, x2 = 0.731 | 0.001322
318.03 K, 1404 kPa, x2 = 0.631 | 0.001643
323 K, 640 kPa, x2 = 0.117 | 0.0038
323 K, 652 kPa, x2 = 0.25 | 0.003756
323 K, 791 kPa, x2 = 0.389 | 0.003084
323 K, 1056 kPa, x2 = 0.503 | 0.002294
323 K, 1467 kPa, x2 = 0.685 | 0.001632
323 K, 1794 kPa, x2 = 0.731 | 0.001322
323 K, 3554 kPa, x2 = 0.873 | 0.000596
323.01 K, 1433 kPa, x2 = 0.631 | 0.001643
327.97 K, 3638 kPa, x2 = 0.873 | 0.000596
327.98 K, 652 kPa, x2 = 0.117 | 0.003801
327.98 K, 1076 kPa, x2 = 0.503 | 0.002295
327.98 K, 1830 kPa, x2 = 0.731 | 0.001323
327.99 K, 664 kPa, x2 = 0.25 | 0.003757
327.99 K, 806 kPa, x2 = 0.389 | 0.003085
327.99 K, 1496 kPa, x2 = 0.685 | 0.001632
328 K, 1461 kPa, x2 = 0.631 | 0.001643
332.96 K, 3723 kPa, x2 = 0.873 | 0.000596
332.97 K, 664 kPa, x2 = 0.117 | 0.003801
332.97 K, 820 kPa, x2 = 0.389 | 0.003086
332.97 K, 1096 kPa, x2 = 0.503 | 0.002295
332.97 K, 1524 kPa, x2 = 0.685 | 0.001632
332.97 K, 1866 kPa, x2 = 0.731 | 0.001323
332.98 K, 676 kPa, x2 = 0.25 | 0.003758
332.98 K, 1489 kPa, x2 = 0.631 | 0.001644
337.94 K, 3807 kPa, x2 = 0.873 | 0.000596
337.95 K, 835 kPa, x2 = 0.389 | 0.003086
337.95 K, 1116 kPa, x2 = 0.503 | 0.002296
337.96 K, 677 kPa, x2 = 0.117 | 0.003802
337.96 K, 688 kPa, x2 = 0.25 | 0.003758
337.96 K, 1553 kPa, x2 = 0.685 | 0.001633
337.96 K, 1901 kPa, x2 = 0.731 | 0.001323
337.97 K, 1517 kPa, x2 = 0.631 | 0.001644
342.93 K, 3890 kPa, x2 = 0.873 | 0.000596
342.94 K, 850 kPa, x2 = 0.389 | 0.003087
342.94 K, 1136 kPa, x2 = 0.503 | 0.002296
342.94 K, 1580 kPa, x2 = 0.685 | 0.001633
342.94 K, 1936 kPa, x2 = 0.731 | 0.001324
342.95 K, 689 kPa, x2 = 0.117 | 0.003803
342.95 K, 700 kPa, x2 = 0.25 | 0.003759
342.96 K, 1545 kPa, x2 = 0.631 | 0.001645
